From paper PMC8276018, “The Prostacyclin Analogue, Treprostinil, Used in the Treatment of Pulmonary Arterial Hypertension, is a Potent Antagonist of TREK-1 and TREK-2 Potassium Channels” (Frontiers in Pharmacology, 2021) come the findings set out here.

Numbering of substitutions follows the chain as printed.

The term IC50 denotes the midpoint of a concentration-inhibition curve. A word on the inhibition: it is the relative decrease from the control value, in per cent. Read a high inhibition as strong suppression.

What all share (format): cell-based
For assay [1], the target named is T1, TREK-1 (Homo sapiens, UniProt O95069).
T1 construct: gene KCNK2; NP_055032.1, wild type, expressed in tsA201 cells
T1 sequence (O95069 1-426): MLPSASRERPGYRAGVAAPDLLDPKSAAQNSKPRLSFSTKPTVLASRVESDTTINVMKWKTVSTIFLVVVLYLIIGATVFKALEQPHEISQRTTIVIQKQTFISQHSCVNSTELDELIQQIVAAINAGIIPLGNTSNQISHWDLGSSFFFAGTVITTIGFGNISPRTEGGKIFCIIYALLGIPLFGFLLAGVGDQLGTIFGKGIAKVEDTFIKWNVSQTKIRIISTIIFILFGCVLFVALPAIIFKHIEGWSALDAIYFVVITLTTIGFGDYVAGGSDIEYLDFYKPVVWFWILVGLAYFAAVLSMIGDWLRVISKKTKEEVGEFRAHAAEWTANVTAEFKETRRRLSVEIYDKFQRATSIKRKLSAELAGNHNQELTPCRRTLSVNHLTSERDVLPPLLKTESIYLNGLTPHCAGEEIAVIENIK
The assay is described as follows: whole-cell patch-clamp, current activation at […]. The conditions noted are these: read-out: % current enhancement at 1 μM. In general terms: Patch clamp records ionic current or voltage across a cell membrane.

For assay [2], the target named is T2, TREK-2 (Homo sapiens, UniProt P57789).
T2 construct: gene KCNK10; NP_612190.1, wild type, expressed in tsA201 cells
T2 sequence (P57789 1-538): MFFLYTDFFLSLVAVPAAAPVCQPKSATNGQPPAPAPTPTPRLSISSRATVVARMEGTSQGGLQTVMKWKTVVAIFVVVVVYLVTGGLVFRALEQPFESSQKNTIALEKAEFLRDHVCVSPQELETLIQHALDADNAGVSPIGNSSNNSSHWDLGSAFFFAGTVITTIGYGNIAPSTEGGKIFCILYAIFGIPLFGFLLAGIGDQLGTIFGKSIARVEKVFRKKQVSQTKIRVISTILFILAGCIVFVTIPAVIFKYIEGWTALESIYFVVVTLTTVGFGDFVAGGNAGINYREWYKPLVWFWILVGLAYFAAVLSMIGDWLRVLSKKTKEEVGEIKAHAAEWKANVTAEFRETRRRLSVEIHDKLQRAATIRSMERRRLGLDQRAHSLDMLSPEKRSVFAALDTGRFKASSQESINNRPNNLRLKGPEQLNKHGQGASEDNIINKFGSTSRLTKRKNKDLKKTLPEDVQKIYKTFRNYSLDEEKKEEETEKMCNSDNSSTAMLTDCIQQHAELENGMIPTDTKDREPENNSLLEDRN
Briefly: whole-cell patch-clamp, current activation at […]. Conditions: read-out: % current enhancement at 1 μM.

Assay [3] concerns the target T1, TREK-1. The assay is described as follows: whole-cell patch-clamp, concentration-response.
Assay [4] deals with T3, TREK-1 (Homo sapiens, UniProt O95069, Y299A).
T3 construct: gene KCNK2; homodimeric mutant channel in tsA201 cells
T3 sequence (O95069 1-411 isoform O95069-2 Y284A): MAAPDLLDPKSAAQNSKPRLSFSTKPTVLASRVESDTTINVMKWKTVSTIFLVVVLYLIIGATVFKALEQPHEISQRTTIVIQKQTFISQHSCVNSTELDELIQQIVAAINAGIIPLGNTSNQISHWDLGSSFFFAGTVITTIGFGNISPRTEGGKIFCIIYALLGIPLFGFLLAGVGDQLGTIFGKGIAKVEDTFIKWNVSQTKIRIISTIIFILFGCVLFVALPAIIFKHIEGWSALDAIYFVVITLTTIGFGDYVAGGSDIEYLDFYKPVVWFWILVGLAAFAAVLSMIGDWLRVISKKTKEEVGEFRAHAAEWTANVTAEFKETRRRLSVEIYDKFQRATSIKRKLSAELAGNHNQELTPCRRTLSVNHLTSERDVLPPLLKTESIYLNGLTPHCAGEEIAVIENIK
Briefly: whole-cell patch-clamp, […].

Assay [5] deals with T4, TREK-1 (Homo sapiens, UniProt O95069, I95A).
T4 construct: gene KCNK2; homodimeric mutant channel in tsA201 cells
T4 sequence (O95069 1-411 isoform O95069-2 I80A): T3 sequence (O95069 1-411 isoform O95069-2 Y284A) with I80A, A284Y
The assay is described as follows: whole-cell patch-clamp, […].

Assay [6] has as its target T5, TREK-1 (Homo sapiens, UniProt O95069, L304A).
T5 construct: gene KCNK2; homodimeric mutant channel in tsA201 cells
T5 sequence (O95069 1-411 isoform O95069-2 L289A): T3 sequence (O95069 1-411 isoform O95069-2 Y284A) with A284Y, L289A
The assay is described as follows: whole-cell patch-clamp, […].

Assay [7] has as its target T6, TREK-1 (Homo sapiens, UniProt O95069, L117A).
T6 construct: gene KCNK2; homodimeric mutant channel in tsA201 cells
T6 sequence (O95069 16-426 L117A): T3 sequence (O95069 1-411 isoform O95069-2 Y284A) with M1V, L102A, A284Y
Briefly: whole-cell patch-clamp, […].

In assay [8] the target is T7, TREK-2 (Homo sapiens, UniProt P57789, L315A).
T7 construct: gene KCNK10; homodimeric mutant channel in tsA201 cells
T7 sequence (P57789 1-538 L315A): T2 sequence (P57789 1-538) with L315A
The assay is described as follows: whole-cell patch-clamp, […].

Assay [9] deals with T8, TREK-1 (Homo sapiens, UniProt O95069, Q91A).
T8 construct: gene KCNK2; homodimeric mutant channel in tsA201 cells
T8 sequence (O95069 1-411 isoform O95069-2 Q76A): T3 sequence (O95069 1-411 isoform O95069-2 Y284A) with Q76A, A284Y
The assay is described as follows: whole-cell patch-clamp, […].

The target in assay [10] is T2, TREK-2. The assay is described as follows: whole-cell patch-clamp, concentration-response.

As to `c1ccc(-c2nn[nH]n2)c(Nc2cccc3c2CCCC3)c1` [BL-1249], the activation at 1 µM on TREK-1 [1] was found to be 144%; on TREK-2 [2], 192%.
Turning to `CCCCC[C@H](O)CC[C@@H]1[C@H]2Cc3cccc(OCC(=O)O)c3C[C@H]2C[C@H]1O` [treprostinil], the IC50 was 30 nM at TREK-1 [3] and 40 nM against TREK-2 [10]. The inhibition at 1 µM on TREK-1 [4] was found to be 58%; against TREK-1 [5], 78.2%; against TREK-1 [6], 72%; against TREK-1 [7], 88%; against TREK-2 [8], 74%; at TREK-1 [9], 89%.
